Laboratory results: patent publication US20160310519A1, “MODIFIED G-QUADRUPLEX NANOPARTICLES” (NANYANG TECHNOLOGICAL UNIVERSITY, priority 2013, published 2016)

Assays:
[1] = CD melting experiments of multiple N2-modified G-quadruplexes in low salt; assay type: physicochemical; conditions: low salt (1 mM KPi+1 mM KCl), CD at 290 nm
Method: CD melting experiments were performed for the unmodified sequence and for sequences containing multiple N2-modifications. Samples contained 4-5 μM DNA by strand concentration in 1 mM KCl and 1 mM KPi. Samples were heated to 95° C. (98° C. for N2-Ball-with-Hair sample) and cooled to 15° C. at a rate of 0.2° C./min. Samples were then heated in a similar manner. Data was recorded every 0.5° C. at 290 nm and corrected by subtraction at 320 nm. Normalized melting curves are used to determine the melting temperature (Tm) of modified sequences, which is taken as an average of the heating and cooling curves.
The designed sequences were tested in a “low salt” solution of 1 mM KPi+1 mM KCl. Of the sequences tested with multiple modifications, SEQ ID Nos. 38, 39, 41 and 42 were determined to maintain the (3+1) conformation by analysis of ^1H NMR and CD spectra, which were highly similar to SEQ ID NO:1 (FIG. 4).
Additionally, these changes in stability were roughly equivalent to the sum of stability changes observed for the individual single-position substitutions.

[2] = Temperature dependent CD spectra under physiological salt conditions; assay type: physicochemical
Method: Spectra were recorded on a JASCO-815 spectropolarimeter (Tokyo, Japan). Samples contained a DNA strand concentration of 4-5 μM. […] Spectra were normalized through subtracting by the CD absorbance at 320 nm and dividing by concentration of the sample determined by concurrent UV absorption measurements. Samples were annealed prior to recording of CD spectra by heating to 100° C. and allowed to cool slowly at room temperature.
The stability of the “Ball with Hair” structure formed by SEQ ID NO:42 under “physiological salt” conditions (10 mM Kpi+130 mM KCL) was similar to those experienced in a cellular environment. NMR spectra of SEQ ID NO:42 under physiological salt conditions matched the spectra recorded in low salt conditions.

Substance | Δ Tm [1] | melting temperature [1] [°C] | Δ Tm ([1]; listed as ball with hair) [°C] | melting temperature ([2]; physiological K+ conditions (10 mM KPi+130 mM KCl)) [°C] | CD signal intensity observed at 95° C. ([2]; physiological salt (10 mM KPi+130 mM KCl), 95° C.)
SEQ ID NO:38: contains two ^HexG substitutions into separate grooves in positions that were highly stabilizing in the single-substitutions studies (TTNGGTTANGGTTAGGGTTAGGGA; two N2-hexyl guanine modifications, chemistry not fully specified) | +6.9 °C |  |  |  | 
SEQ ID NO:39: contains two ^MetG substitutions of guanines that neighbors within the wide groove (TTGGGTTAGNNTTAGGGTTAGGGA; two N2-methyl guanine modifications, chemistry not fully specified) | +18.2 °C |  |  |  | 
SEQ ID NO:41: designed to contain a modification in each groove of the G-quadruplex nanoparticle (TTNGGTTANGNTTANGGTTAGGGA; DNA, backbone and the base at N not given here; N2-modified guanines at marked positions) | +26.6 °C |  |  |  | 
SEQ ID NO:42: containing eight ^HexG modifications towards the design of a "Ball with Hair" type of nanoparticle (TTNNGTTANGNTTANGNTTAGNNA; eight N2-hexyl guanine modifications, chemistry not fully specified) | +46.2 °C | 91.7 | 46 | > 95 | more than 80%
SEQ ID NO:43: contains a variety of 8 N2-modifications aimed to maximize the thermal stability (TTNGGTTANGNTTANGNTTANGNA; DNA, backbone and the base at N not given here; further chemistry not fully specified) | +35.6 °C |  |  |  | 
